Results taken from ChEMBL document CHEMBL5316325, “Design and Synthesis of 3-Hydroxy-pyridin-4(1H)-ones-Ciprofloxacin Conjugates as Dual Antibacterial and Antibiofilm Agents against Pseudomonas aeruginosa” (J Med Chem, 2023).
Converted amounts (≈) assume the structure as drawn. The source made the active and inactive calls. The calls are words filed in the database; no cut-off is given here.

Columns and labels:
Pseudomonas aeruginosa [1] = assay: Antibiofilm activity against Pseudomonas aeruginosa PAO1 in ABTGC medium assessed as biofilm biomass at MIC incubated for 24 hrs by crystal violet staining based assay relative to control; assay type: functional
Staphylococcus aureus [2] = assay: Antibacterial activity against Staphylococcus aureus ATCC 25923 in MHB medium assessed as bacterial growth inhibition by CLSI based broth microdilution method; assay type: functional
Pseudomonas aeruginosa [3] = assay: Antibacterial activity against Pseudomonas aeruginosa ATCC 27853 in MHB medium assessed as bacterial growth inhibition by CLSI based broth microdilution method; assay type: functional
Pseudomonas aeruginosa [4] = assay: Antibacterial activity against Pseudomonas aeruginosa PAO1 in MHB medium assessed as bacterial growth inhibition by CLSI based broth microdilution method; assay type: functional
Pseudomonas aeruginosa [5] = assay: Antibacterial activity against Pseudomonas aeruginosa PAO1 in ABTGC medium assessed as bacterial growth inhibition; assay type: functional
Pseudomonas aeruginosa [6] = assay: Antibacterial activity against Pseudomonas aeruginosa assessed as inhibition of virulence release at 4 ug/ml; assay type: functional, organism-based; settings: dose 4.0 µg/ml
Pseudomonas aeruginosa [7] = assay: Antibacterial activity against Pseudomonas aeruginosa FB in MHB medium assessed as bacterial growth inhibition by CLSI based broth microdilution method; assay type: functional
Pseudomonas aeruginosa [8] = assay: Antibacterial activity against Pseudomonas aeruginosa 1167 in MHB medium assessed as bacterial growth inhibition by CLSI based broth microdilution method; assay type: functional
Pseudomonas aeruginosa [9] = assay: Antibacterial activity against Pseudomonas aeruginosa 1121 in MHB medium assessed as bacterial growth inhibition by CLSI based broth microdilution method; assay type: functional
Pseudomonas aeruginosa [10] = assay: Antibiofilm activity against Pseudomonas aeruginosa PAO1 in ABTGC medium assessed as biofilm biomass at 1/2 times MIC incubated for 24 hrs by crystal violet staining based assay relative to control; assay type: functional
Staphylococcus aureus [11] = assay: Antibacterial activity against methicillin-resistant Staphylococcus aureus ATCC 515992 in MHB medium assessed as bacterial growth inhibition by CLSI based broth microdilution method; assay type: functional
Klebsiella pneumoniae = assay: Antibacterial activity against Klebsiella pneumoniae ATCC 700603 in MHB medium assessed as bacterial growth inhibition by CLSI based broth microdilution method; assay type: functional
Pseudomonas aeruginosa [12] = assay: Antibacterial activity against Pseudomonas aeruginosa 1129 in MHB medium assessed as bacterial growth inhibition by CLSI based broth microdilution method; assay type: functional
Pseudomonas aeruginosa [13] = assay: Antibiofilm activity against Pseudomonas aeruginosa PAO1 in ABTGC medium assessed as biofilm biomass at 1/4 times MIC incubated for 24 hrs by crystal violet staining based assay relative to control; assay type: functional
Escherichia coli = assay: Antibacterial activity against Escherichia coli ATCC 25922 in MHB medium assessed as bacterial growth inhibition by CLSI based broth microdilution method; assay type: functional
Pseudomonas aeruginosa [14] = assay: Antibiofilm activity against Pseudomonas aeruginosa PAO1 assessed as decrease in rhamnolipid level at 15 uM by absorbance based assay; assay type: functional, organism-based
Pseudomonas aeruginosa [15] = assay: Antibiofilm activity against Pseudomonas aeruginosa PAO1 assessed as inhibition of bacterial motility at 15 uM incubated for 16 hrs relative to control; assay type: functional, organism-based
Pseudomonas aeruginosa [16] = assay: Antibiofilm activity against Pseudomonas aeruginosa PAO1 assessed as decrease in pyocyanin level at 15 uM by absorbance based assay; assay type: functional, organism-based
Pseudomonas aeruginosa [17] = assay: Antibiofilm activity against Pseudomonas aeruginosa PAO1 in ABTGC medium assessed as biofilm biomass at MIC incubated for 24 hrs in presence of 10 uM Fe by crystal violet staining based assay relative to control; assay type: functional
Pseudomonas aeruginosa [18] = assay: Antibiofilm activity against Pseudomonas aeruginosa PAO1 assessed as biofilm eradication at 4 times MIC incubated for 24 hrs by crystal violet staining based assay relative to control; assay type: functional
Pseudomonas aeruginosa [19] = assay: Antibiofilm activity against Pseudomonas aeruginosa PAO1 assessed as biofilm eradication at high concentration incubated for 36 hrs by crystal violet staining based assay; assay type: functional, organism-based
HEK293 [20] = assay: Cytotoxicity against HEK293 cells at 50 to 100 uM incubated for 48 hrs by MTT assay relative to control; assay type: toxicity, cell-based; settings: human, hek293, 48 h, dose 50-100 µM
[21] = Toxicity in Caenorhabditis elegans assessed as survival rate at 50 to 100 uM measured after 48 hrs by bright field microscopy; settings: dose 50-100 µM
Pseudomonas aeruginosa [22] = assay: Antibiofilm activity against Pseudomonas aeruginosa PAO1 in ABTGC medium assessed as biofilm biomass at 1/2 times MIC incubated for 24 hrs in presence of 40 uM Fe by crystal violet staining based assay relative to control; assay type: functional
Pseudomonas aeruginosa [23] = assay: Antibiofilm activity against Pseudomonas aeruginosa PAO1 assessed as decrease in pyocyanin level by absorbance based assay; assay type: functional, organism-based; settings: dose 1.72-6.88 µM
Pseudomonas aeruginosa [24] = assay: Antibiofilm activity against Pseudomonas aeruginosa PAO1 in ABTGC medium assessed as biofilm biomass at MIC incubated for 24 hrs in presence of 40 uM Fe by crystal violet staining based assay relative to control; assay type: functional
Pseudomonas aeruginosa [25] = assay: Antibiofilm activity against Pseudomonas aeruginosa PAO1 assessed as reduction in twitching motility at 3.44 uM incubated for 16 hrs relative to control; assay type: functional; design: scale not given: the % may be the effect or the level left
Pseudomonas aeruginosa [26] = assay: Antibiofilm activity against Pseudomonas aeruginosa PAO1 in ABTGC medium assessed as biofilm biomass at 1/2 times MIC incubated for 24 hrs in presence of 10 uM Fe by crystal violet staining based assay relative to control; assay type: functional
Pseudomonas aeruginosa [27] = assay: Antibiofilm activity against Pseudomonas aeruginosa PAO1 assessed as reduction in swarming motility at 3.44 uM incubated for 16 hrs relative to control; assay type: functional; design: scale not given: the % may be the effect or the level left
Pseudomonas aeruginosa [28] = assay: Antibiofilm activity against Pseudomonas aeruginosa PAO1 assessed as decrease in rhamnolipid level at 3.44 uM by absorbance based assay relative to control; assay type: functional; design: scale not given: the % may be the effect or the level left
Pseudomonas aeruginosa [29] = assay: Antibacterial activity against Pseudomonas aeruginosa PAO1 assessed as decrease in bacterial load at MIC measured for 12 hrs by absorbance based assay; assay type: functional, organism-based
[30] = Toxicity in Caenorhabditis elegans infected with Pseudomonas aeruginosa PAO1 assessed as survival at MIC measured after 48 hrs by bright field microscopy relative to control; settings: read-out: Activity
Pseudomonas aeruginosa [31] = assay: Antibiofilm activity against Pseudomonas aeruginosa PAO1 assessed as decrease in pyocyanin level at 3.44 uM by absorbance based assay relative to control; assay type: functional; design: scale not given: the % may be the effect or the level left
Pseudomonas aeruginosa [32] = assay: Antibacterial activity against Pseudomonas aeruginosa PAO1 assessed as log reduction in CFU/ml at 8 times MIC measured after 2 hrs by time killing analysis; assay type: functional
HEK293 [33] = assay: Cytotoxicity against HEK293 cells upto 100 uM incubated for 48 hrs by MTT assay; assay type: toxicity, cell-based; settings: human, hek293, 48 h
Pseudomonas aeruginosa [34] = assay: Antibiofilm activity against Pseudomonas aeruginosa PAO1 assessed as reduction in swimming motility at 3.44 uM incubated for 16 hrs relative to control; assay type: functional; design: scale not given: the % may be the effect or the level left
Pseudomonas aeruginosa [35] = assay: Antibiofilm activity against Pseudomonas aeruginosa PAO1 assessed as decrease in rhamnolipid level by absorbance based assay; assay type: functional, organism-based; settings: dose 1.72-6.88 µM
Pseudomonas aeruginosa [36] = assay: Antibacterial activity against Pseudomonas aeruginosa PAO1 assessed as reduction in bacterial viability at 8 times MIC measured after 4 hrs by time killing analysis; assay type: functional, organism-based
Pseudomonas aeruginosa [37] = assay: Antibacterial activity against Pseudomonas aeruginosa PAO1 assessed as reduction in bacterial viability at MIC measured after 8 hrs by time killing analysis; assay type: functional, organism-based
Pseudomonas aeruginosa [38] = assay: Antibiofilm activity against Pseudomonas aeruginosa PAO1 in ABTGC medium assessed as biofilm biomass at 1/4 times MIC incubated for 24 hrs in presence of 10 uM Fe by crystal violet staining based assay relative to control; assay type: functional
A549 = assay: Cytotoxicity against human A549 cells upto 100 uM incubated for 16 hrs by MTT assay; assay type: toxicity, cell-based; settings: a549, 16 h
Pseudomonas aeruginosa [39] = assay: Antibiofilm activity against Pseudomonas aeruginosa PAO1 in ABTGC medium assessed as biofilm biomass at 1/4 times MIC incubated for 24 hrs in presence of 40 uM Fe by crystal violet staining based assay relative to control; assay type: functional
Pseudomonas aeruginosa [40] = assay: Antibacterial activity against Pseudomonas aeruginosa PAO1 assessed as reduction in bacterial CFU count at 8 times MIC measured after 4 hrs by time killing analysis; assay type: functional, organism-based

Row | SMILES | Activity (Pseudomonas aeruginosa [1]) [%] | MIC (Staphylococcus aureus [2]) [µM] | MIC (Pseudomonas aeruginosa [3]) [µM] | MIC (Pseudomonas aeruginosa [4]) [µM] | MIC (Pseudomonas aeruginosa [5]) [µM] | MIC (Pseudomonas aeruginosa [7]) [µM] | MIC (Pseudomonas aeruginosa [8]) [µM] | MIC (Pseudomonas aeruginosa [9]) [µM] | Activity (Pseudomonas aeruginosa [10]) [%] | MIC (Staphylococcus aureus [11]) [µM] | MIC (Klebsiella pneumoniae) [µM] | MIC (Pseudomonas aeruginosa [12]) [µM] | Activity (Pseudomonas aeruginosa [13]) [%] | MIC (Escherichia coli) [µM] | Activity (Pseudomonas aeruginosa [17]) [%] | Activity (Pseudomonas aeruginosa [18]) [%] | Activity (Pseudomonas aeruginosa [19]) | Activity [21] | also measured
1 | Cc1cc(=O)c(O)c(CNC(=O)CCC(N)(CCC(=O)NCc2c(O)c(=O)cc(C)n2C)CCC(=O)NCc2c(O)c(=O)cc(C)n2C)n1C | 315.1 | > 200 | > 200 | > 200 | > 200 | > 200 | > 200 | > 200 | 346.5 | > 200 | > 200 | > 200 | 99.8 | > 200 |  |  |  |  | inhibition (Pseudomonas aeruginosa [6]): inactive
2 | O=C(CCC(=O)N1CCN(c2cc3c(cc2F)c(=O)c(C(=O)O)cn3C2CC2)CC1)NCc1ccccc1 | 218.8 | 30.7 (≈ 16 µg/mL) | > 200 | > 200 | > 200 | > 200 | > 200 | > 200 | 97.3 | > 200 | > 200 | > 200 | 102.4 | 15.4 (≈ 8 µg/mL) |  |  |  |  | Activity (Pseudomonas aeruginosa [14]): inactive; inhibition (Pseudomonas aeruginosa [15]): inactive; Activity (Pseudomonas aeruginosa [16]): inactive
3 | O=C(O)c1cn(C2CC2)c2cc(N3CCNCC3)c(F)cc2c1=O [CIPROFLOXACIN] | 109.5 |  |  |  |  |  |  |  |  |  |  |  |  |  | 109.5 | 23.6 | inactive | Non-Toxic | Activity (HEK293 [20]): 40%
4 | Cc1cc(=O)c(O)c(CNC(=O)CCC(=O)N2CCN(c3cc4c(cc3F)c(=O)c(C(=O)O)cn4C3CC3)CC2)n1C | 39 | 3.44 (≈ 2 µg/mL) | 0.86 (≈ 0.5 µg/mL) | 0.43 (≈ 0.25 µg/mL) | 6.88 (≈ 4 µg/mL) | 1.72 (≈ 1 µg/mL) | 0.86 (≈ 0.5 µg/mL) | 1.72 (≈ 1 µg/mL) | 111.5 | > 200 | 1.72 (≈ 1 µg/mL) | 3.44 (≈ 2 µg/mL) | 21.7 | 0.03 (≈ 0.0174 µg/mL) | 39 | 74.2 | Active | Non-Toxic | Activity (Pseudomonas aeruginosa [22]): 223.4%; Activity (Pseudomonas aeruginosa [23]): Dose-Dependent Effect; Activity (Pseudomonas aeruginosa [24]): 211%; Activity (Pseudomonas aeruginosa [25]): 63%; Activity (Pseudomonas aeruginosa [26]): 111.5%; Activity (Pseudomonas aeruginosa [27]): 30%; Activity (Pseudomonas aeruginosa [28]): 20%; Activity (Pseudomonas aeruginosa [29]): Active; survival at 48 h [30]: 50%; Activity (Pseudomonas aeruginosa [31]): 40%; FC (Pseudomonas aeruginosa [32]): 2; Activity (HEK293 [33]): Non-Toxic; Activity (Pseudomonas aeruginosa [34]): 63%; Activity (Pseudomonas aeruginosa [35]): Dose-Dependent Effect; Activity (Pseudomonas aeruginosa [36]): Active; Activity (Pseudomonas aeruginosa [37]): Active; Activity (Pseudomonas aeruginosa [38]): 21.7%; Activity (A549): Non-Toxic; Activity (Pseudomonas aeruginosa [39]): 205.2%; Activity (Pseudomonas aeruginosa [40]): Active
